Experimental data reported in publication PMC9963887, “Towards Radiolabeled EGFR-Specific Peptides: Alternatives to GE11” (Pharmaceuticals, 2023).

Test system: EGFR-positive A431 cells
Experiment: cell uptake / internalization studies on A431 cells
Type: cell-based, human
Details: 1 h incubation
Protocol: The cellular uptake was differentiated by membrane-bound and internalized activity. In these experiments, no EGFR-specific interaction of any of the radiolabeled agents [^68Ga]Ga-1–[^68Ga]Ga-11 was observed (Figure 5).
Internalization studies of [^68Ga]Ga-1–[^68Ga]Ga-11 on A431 cells. For this purpose, the A431 cells (10^6 per well) were seeded into 24-well cell culture multiwell plates (cellstar) and incubated for 2 days at 37 °C in a humidified CO2 (5%) atmosphere. Directly before the experiment, each well was washed twice with fresh internalization medium (PBS/DMEM, high glucose, 1/99, v/v), followed by the addition of internalization medium to a final volume of 1.35 mL per well. […] Afterwards, the medium was separated from the cells and each well was washed twice with 1 mL of ice-cold internalization medium, the washing solutions were added to the collected internalization medium and measured in a γ-counter (these combined solutions contain the unbound fraction). To determine the surface-bound fraction, each well was further incubated twice for 5 min with ice-cold glycine-buffer (pH 2.8, 0.05 M, 1 mL) and the supernatants were collected and measured. The internalized fraction was determined by lysing the cells twice for 5 min with sodium hydroxide solution (2 M, 1 mL), collection and measurement of the combined solutions. […]

Substance: [^125I]I-hEGF: ^125I-labeled hEGF from PerkinElmer, reference compound in cell uptake and competitor in displacement assays
- activity, internalized + bound to membrane, blocked (overall cellular uptake under blocking) (blocking with 100-fold excess hEGF): 1.9%
- activity, internalized + bound to membrane, unblocked (overall cellular uptake) (non-blocking conditions): 33.6%
